Assays:
AKT1 = AKT1 (Homo sapiens, UniProt P31749); assay: AKT Kinase Activity Assay (AlphaScreen, crosstide); conditions: Average of Akt1 biochemical assay
Procedure: AKT1 activity was assayed using the GSK3-derived biotinylated peptide substrate, crosstide (biotin-GRPRTSSFAEG), and AlphaScreen™ (Amplified Luminescent Proximity Homogeneous Assay) technology. AKT1 activation was achieved by the addition of the activating kinases PDK1 and MAPKAPK2, lipid vesicles, and ATP. The extent of peptide phosphorylation was determined using a phospho-AKT substrate antibody and acceptor beads conjugated to Protein A and donor beads conjugated to streptavidin that bind to the biotin on the peptide. Excitation of the donor beads converted ambient oxygen to excited singlet oxygen which, when in close proximity to acceptor beads, reacted with acceptor beads resulting in signal amplification.
Test inhibitors and controls (Abbott inhibitor, Merck pre-clinical inhibitor, and Merck clinical inhibitor) were prepared in 10% DMSO at 10-fold the desired final concentration, and added to each well of a reaction plate (Corning 96-well half-area solid white nonbinding surface plate) in a volume of 2.5 μL. […] After a 20 minute pre-incubation at room temperature, the kinase reaction was initiated by the addition of 5 μL of an activation mixture diluted in assay buffer containing biotinylated crosstide, PDK1, MAPKAPK2, DOPS/DOPC, PtdIns(3,4,5)P3, and ATP for final concentrations of 60 nM biotinylated crosstide, 0.1 nM PDK1, 0.7 nM MK2, 5.5 μM DOPS, 5.5 μM DOPC, 0.5 μM PtdIns(3,4,5)P3, and 50 μM ATP. The plates were incubated for 30 minutes at room temperature, and then stopped in the dark by the addition of 10 μL stop/detection mixture prepared in assay buffer containing EDTA, AlphaScreen™ Streptavidin Donor and Protein A Acceptor beads, and phospho-AKT substrate antibody for final concentrations of 10 mM EDTA, 500 ng/well of both AlphaScreen™ Streptavidin Donor beads and Protein A Acceptor beads, and phospho-AKT substrate antibody at a final dilution of 1:350. Assay plates were incubated for 90 minutes at room temperature in the dark, and the plates were read on a Perkin Elmer Envision Multilabel plate reader ([…]).

ACK1 (110-489) = target: T1, ACK1 (110-489) (Homo sapiens, UniProt Q07912); assay: ACK1 Activity Assay (AlphaScreen, PYK2-derived peptide); format: biochemical
T1 construct: ACK1 110-489 (12.5 μl) were added to each well
Procedure: The extent of peptide phosphorylation was determined by using acceptor beads conjugated to phosphotyrosine antibody that recognizes the phosphorylated peptide and donor beads conjugated to streptavidin that binds to the biotin on the peptide. Excitation of the donor beads converted ambient oxygen to excited singlet oxygen which when in close proximity to acceptor beads, reacted with acceptor beads where the signal was amplified.
Test inhibitors and controls (N-(2,6-dimethylphenyl)-4-(2-ethoxyphenoxy)-2-[(4-piperazin-1-ylphenyl)amino]pyrimidine-5-carboxamide) were prepared in 10% DMSO at 10× the desired final concentration. […] After a 20-min incubation at room temperature, the kinase reaction was initiated by the addition of 10 μl of PYK2/ATP mixture. […] The plates were incubated for 60 min at room temperature. The reaction was stopped by the addition of 10 μl stop/detection mixture which contains EDTA (final concentration is 10 mM), AlphaScreen™ Streptavidin Donor beads (final concentration is 500 ng/well) and AlphaScreen™ Phospho-tyrosine (P-Tyr-100) Acceptor beads (final concentration is 500 ng/well) were diluted in assay buffer. This reagent addition step was performed in the dark because the AlphaScreen™ beads are light-sensitive. The plate was incubated for 60 min at room temperature in the dark and the plates were read on the Perkin Elmer Envision Multilabel plate reader ([…]).

T1 sequence (Q07912 110-489, species assumed): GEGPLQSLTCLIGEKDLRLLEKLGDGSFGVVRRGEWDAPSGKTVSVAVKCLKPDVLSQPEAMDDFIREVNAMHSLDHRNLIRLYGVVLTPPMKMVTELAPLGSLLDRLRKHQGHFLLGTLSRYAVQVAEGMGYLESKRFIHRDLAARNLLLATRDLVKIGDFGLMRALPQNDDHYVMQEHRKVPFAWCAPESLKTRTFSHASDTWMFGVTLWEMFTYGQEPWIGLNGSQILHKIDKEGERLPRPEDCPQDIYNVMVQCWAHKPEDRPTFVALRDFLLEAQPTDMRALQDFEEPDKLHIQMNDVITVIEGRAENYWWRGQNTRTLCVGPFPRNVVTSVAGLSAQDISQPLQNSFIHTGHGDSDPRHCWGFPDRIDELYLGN
Chain of AKT1 (P31749 whole entry): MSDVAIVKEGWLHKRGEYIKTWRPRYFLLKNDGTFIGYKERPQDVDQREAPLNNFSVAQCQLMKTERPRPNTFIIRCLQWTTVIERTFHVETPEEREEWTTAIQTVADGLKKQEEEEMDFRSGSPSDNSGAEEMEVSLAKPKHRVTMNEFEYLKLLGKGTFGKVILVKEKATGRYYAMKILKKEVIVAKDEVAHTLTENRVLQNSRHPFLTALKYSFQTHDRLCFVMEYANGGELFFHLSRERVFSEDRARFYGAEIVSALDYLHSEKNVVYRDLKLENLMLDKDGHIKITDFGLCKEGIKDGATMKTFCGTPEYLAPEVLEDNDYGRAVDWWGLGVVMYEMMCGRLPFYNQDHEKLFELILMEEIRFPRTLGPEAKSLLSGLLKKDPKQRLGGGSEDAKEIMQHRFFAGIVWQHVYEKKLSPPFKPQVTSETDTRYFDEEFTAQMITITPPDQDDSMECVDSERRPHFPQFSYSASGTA

| SMILES | melting point [°C] | IC50 (AKT1) [nM] | IC50 (ACK1 (110-489)) [nM] |
| --- | --- | --- | --- |
| O=C(Nc1ccccc1)c1cccc(Nc2ncnc3[nH]cc(C(=O)c4ccccc4)c23)c1 | > 300 | – | – |
| CNC(=O)c1cccc(Nc2ncnc3[nH]cc(C(=O)c4ccc(Cl)cc4)c23)c1 | > 300 | – | – |
| Nc1cccc(Nc2ncnc3[nH]cc(C(=O)c4ccccc4)c23)c1 | 280 to 282 | – | – |
| O=C(Nc1cccc(Nc2ncnc3[nH]cc(C(=O)c4ccccc4)c23)c1)c1ccccc1 | > 300 | – | – |
| O=C(Cc1cncc(Br)c1)Nc1cccc(Nc2ncnc3[nH]cc(C(=O)c4ccccc4)c23)c1 | > 300 | – | – |
| O=C(Nc1ccccc1)Nc1cccc(Nc2ncnc3[nH]cc(C(=O)c4ccccc4)c23)c1 | > 300 | – | – |
| Cn1cc(C(=O)c2ccccc2)c2c(Nc3cccc(N)c3)ncnc21 | 170 to 173 | – | – |
| O=C(NCC1CCCCC1)Nc1cccc(Nc2ncnc3[nH]cc(C(=O)c4ccccc4)c23)c1 | 180 to 182 | – | – |
| O=C(c1ccccc1)c1c[nH]c2ncnc(Nc3cccc(CO)c3)c12 | 273 to 275 | – | – |
| CNC(=O)c1cccc(Nc2ncnc3[nH]cc(C(=O)c4ccccc4C)c23)c1 | > 300 | – | – |
| CNC(=O)c1cccc(Nc2ncnc3[nH]cc(C(=O)c4cccc5ccccc45)c23)c1 | > 300 | – | – |
| CC(=O)Nc1cccc(Nc2ncnc3[nH]cc(C(=O)c4cccc5ccccc45)c23)c1 | > 300 | – | – |
| Nc1cccc(Nc2ncnc3[nH]cc(C(=O)c4ccccc4)c23)n1 | > 300 | – | – |
| Cn1cc(CC(=O)Nc2cccc(Nc3ncnc4[nH]cc(C(=O)c5ccccc5)c34)c2)c2ccccc21 [2-(1-methyl-1H-indol-3-yl)-N-(3-{[5-(phenylcarbonyl)-7H-pyrrolo[2,3-d]pyrimidin-4-yl]amino}phenyl)acetamide] | – | 3090 | – |
| CC(=O)NCC(=O)Nc1cccc(Nc2ncnc3[nH]cc(C(=O)c4ccccc4)c23)c1 [2-acetamido-N-(3-((5-benzoyl-7H-pyrrolo[2,3-d]pyrimidin-4-yl)amino)phenyl)acetamide] | – | 94.9 | 666 |
| CN1CCC(NC(=O)c2cccc(Nc3ncnc4[nH]cc(C(=O)c5ccccc5)c34)c2)CC1 [3-[(5-benzoyl-7H-pyrrolo[2,3-d]pyrimidin-4-yl)amino]-N-(1-methylpiperidin-4-yl)benzamide] | – | 1440 | 592 |
| O=C(NCCCN1CCCC1)c1cccc(Nc2ncnc3[nH]cc(C(=O)c4ccccc4)c23)c1 [3-[(5-benzoyl-7H-pyrrolo[2,3-d]pyrimidin-4-yl)amino]-N-(3-pyrrolidin-1-ylpropyl)benzamide] | – | 899 | 1200 |
| O=C(NCCCCN1CCCC1)c1cccc(Nc2ncnc3[nH]cc(C(=O)c4ccccc4)c23)c1 [3-[(5-benzoyl-7H-pyrrolo[2,3-d]pyrimidin-4-yl)amino]-N-(4-pyrrolidin-1-ylbutyl)benzamide] | – | 676 | 2170 |
| CN(C)CCCNC(=O)c1cccc(Nc2ncnc3[nH]cc(C(=O)c4ccccc4)c23)c1 [3-[(5-benzoyl-7H-pyrrolo[2,3-d]pyrimidin-4-yl)amino]-N-[3-(dimethylamino)propyl]benzamide] | – | 674 | 486 |
| CC(=O)NCCC(=O)Nc1cccc(Nc2ncnc3[nH]cc(C(=O)c4ccccc4)c23)c1 [3-acetamido-N-(3-((5-benzoyl-7H-pyrrolo[2,3-d]pyrimidin-4-yl)amino)phenyl)propanamide] | – | 264 | 1340 |
| O=C(Nc1cccc(Nc2ncnc3[nH]cc(C(=O)c4ccccc4)c23)c1)c1ccc(Cl)cc1 [4-chloro-N-(3-{[5-(phenylcarbonyl)-7H-pyrrolo[2,3-d]pyrimidin-4-yl]amino}phenyl)benzamide] | – | 5130 | 15700 |
| O=C(c1ccccc1)c1c[nH]c2ncnc(Nc3cccc(NC(=O)C4CCCC4)c3)c12 [N-(3-{[5-(phenylcarbonyl)-7H-pyrrolo[2,3-d]pyrimidin-4-yl]amino}phenyl) cyclopentanecarboxamide] | – | 7010 | 19000 |
| O=C(CCc1cccnc1)Nc1cccc(Nc2ncnc3[nH]cc(C(=O)c4ccccc4)c23)c1 [N-(3-{[5-(phenylcarbonyl)-7H-pyrrolo[2,3-d]pyrimidin-4-yl]amino}phenyl)-3-pyridin-3-ylpropanamide] | – | 288 | 1070 |
| NC(=O)CCC(=O)Nc1cccc(Nc2ncnc3[nH]cc(C(=O)c4ccccc4)c23)c1 [N-(3-{[5-(phenylcarbonyl)-7H-pyrrolo[2,3-d]pyrimidin-4-yl]amino}phenyl)butanediamide] | – | 1210 | 876 |
| O=C(Nc1ccccc1)c1cccc(Nc2ncnc3[nH]cc(C(=O)c4ccccc4)c23)c1 [drawing 239, 3-[(5-benzoyl-7H-pyrrolo[2,3-d]pyrimidin-4-yl)amino]-N-phenylbenzamide] | – | 1400 | – |
| Nc1cccc(Nc2ncnc3[nH]cc(C(=O)c4ccccc4)c23)c1 [drawing 248, {4-[(3-aminophenyl)amino]-7H-pyrrolo[2,3-d]pyrimidin-5-yl}(phenyl)methanone] | – | 1250 | 415 |
| CC(=O)Nc1cccc(Nc2ncnc3c2c(C(=O)c2ccccc2)cn3C)c1 [drawing 273, N-(3-{[7-methyl-5-(phenylcarbonyl)-7H-pyrrolo[2,3-d]pyrimidin-4-yl]amino}phenyl)acetamide] | – | 2510 | – |
| NCc1cccc(Nc2ncnc3[nH]cc(C(=O)c4ccccc4)c23)c1 [drawing 278, (4-{[3-(aminomethyl)phenyl]amino}-7H-pyrrolo[2,3-d]pyrimidin-5-yl)(phenyl) methanone] | – | 186 | – |

Continued, values first:

| melting point [°C] | IC50 (AKT1) [nM] | IC50 (ACK1 (110-489)) [nM] | SMILES |
| --- | --- | --- | --- |
| 256 to 258 | – | – | CCOC(=O)c1cccc(Nc2ncnc3[nH]cc(C(=O)c4ccccc4)c23)c1 |
| 288 to 290 | – | – | CC(C)(C)OC(=O)Nc1cccc(Nc2ncnc3[nH]cc(C(=O)c4ccccc4)c23)c1 |
| 255 to 257 | – | – | NCc1ccc(Nc2ncnc3[nH]cc(C(=O)c4ccccc4)c23)cc1 |
| 185 to 187 | – | – | CC(C)(C)NC(=O)Nc1cccc(Nc2ncnc3[nH]cc(C(=O)c4ccccc4)c23)c1 |
| 183 to 185 | – | – | CCNC(=O)Nc1cccc(Nc2ncnc3[nH]cc(C(=O)c4ccccc4)c23)c1 |
| 210 to 212 | – | – | CC(C)(C)OC(=O)NCc1cccc(Nc2ncnc3[nH]cc(C(=O)c4ccccc4)c23)c1 |
| 263 to 264 | – | – | CC(=O)Nc1ccc(Nc2ncnc3[nH]cc(C(=O)c4ccccc4)c23)cc1 |
| 274 to 280 | – | – | CC(C)(C)OC(=O)Nc1ccc(Nc2ncnc3[nH]cc(C(=O)c4ccccc4)c23)cc1 |
| – | 5120 | – | CNC(=O)c1cccc(Nc2ncnc3[nH]cc(C(=O)c4ccccc4)c23)c1 [3-((5-benzoyl-7H-pyrrolo[2,3-d]pyrimidin-4-yl)amino)-N-methylbenzamide] |
| – | 3000 | 2190 | O=C(O)c1cccc(Nc2ncnc3[nH]cc(C(=O)c4ccccc4)c23)c1 [3-[(5-benzo-7H-pyrrolo[2,3-d]pyrimidin-4-yl)amino]benzoic acid] |
| – | 1120 | 672 | CN(C)CC(=O)Nc1cccc(Nc2ncnc3[nH]cc(C(=O)c4ccccc4)c23)c1 [N,N-dimethyl-N-(3-{[5-(phenylcarbonyl)-7H-pyrrolo[2,3-d]pyrimidin-4-yl]amino}phenyl)glycinamide] |
| – | 2170 | 3870 | CC(=O)Nc1cccc(Nc2ncnc3[nH]cc(C(=O)c4ccccc4)c23)c1 [N-{3-[(5-benzoyl-7H-pyrrolo[2,3-d]pyrimidin-4-yl)amino]phenyl}acetamide] |
| – | 2570 | 338 | Nc1ccc(Nc2ncnc3[nH]cc(C(=O)c4ccccc4)c23)cc1 [{4-[(4-aminophenyl)amino]-7H-pyrrolo[2,3-d]pyrimidin-5-yl}(phenyl)methanone] |

— US8580803B2, “Substituted pyrrolo-aminopyrimidine compounds” (ArQule, Inc., priority 2009, dated 2013)
